Patent publication US5993846A, “Bioadhesive emulsion preparations for enhanced drug delivery” (Pharmos Corporation, priority 1998, dated 1999)

Test system: blood clotting
Type: in vivo, Male Sprague Dawley rats
Method: Clotting time of blood droplets obtained by tail […] used to evaluate the systemic effect of LMWH following intracolonic (i.c.) or intravenous (i.v.) treatment of rats. Male Sprague Dawley rats (200-300 g) were used for all of these experiments. Following preliminary studies, experiments were performed between 8:00-13:00 hours in order to reduce diurnal changes in responsiveness to heparins. Rats were anesthetized with 0.3 ml […] (2:1), weighed, and the initial blood clotting time was determined. Each rat was then treated with either Fragmin or control vehicle (i.v. or i.c.). Intravenous treatment was performed by exposing the femoral […] and injecting in the direction of blood flow. Intracolonic treatment was performed by opening the peritoneal cavity at the midline, locating the secum, and injecting into the large intestine, approximately 2 cm from the secum. The time of treatment was considered as T. At the indicated intervals, blood clotting time was determined. The pharmacological activity, denoted PA %, was used to evaluate the relative effect of various routes of administration and dose levels on blood clotting time. PA % was calculated for the individual rats and the values presented are the mean of each group. […] Blood clotting was measured by […] […] The clotting time was measured with a stop watch that was started when the drops were collected.

Low molecular weight heparin [LMWH]
dose-response of blood clotting time and maximal effect, ME % (i.v., groups A-C, FIG. 4): approximately linear dose-response | TMAX of blood clotting time (rat, in vivo): 1.5 h
